Entries after “also recorded” stand apart in the source; their conditions may differ.
Experiments:
human islets = test: Glucose-stimulated insulin secretion of purified human cadaveric islets ex vivo; type: cell-based; details: stimulation by high concentrations of glucose
Experimental: Human islet tissue and glucose-stimulated insulin secretion. The islet tissue used in these studies was obtained with institutional review board approval. Pancreas digestion and islet isolation were performed using minor modifications of the Edmonton purification protocol. (Shapiro, […] al. “Islet […] in seven patients with type I diabetes mellitus using a glucocortoid-free immunosuppressive regimen.” New England Journal of Medicine 343(4):230-8, (2000)) The determination of islet cell mass, viability, and purity were also performed. Purified islets were cultured in CMRL 1066 culture media with 10% fetal bovine serum at 37° C. in humidified air (5% CO2) for 18 to 24 hours. The human islet insulin secretory response was performed according to a procedure described by the Edmonton group. (Id.) Briefly, after an overnight culture, islets were incubated with either low or high concentrations of glucose for 2 hours at 37° C. and 5% CO2. The supernatant was collected for insulin measurement. Insulin concentrations in these experiments were analyzed with a human insulin enzyme-linked immunosorbent assay (ELISA) kit (ALPCO Insulin ELISA kit, Windham, N.H.). In some experiments TBZ, DTBZ or epinephrine was added to the cultures before glucose stimulation.

Lewis rats [1] = test: IPGTT with TBZ, emetine and Compound 6 (FIG. 12); type: in vivo, rat; details: single dose 2-3 mg/kg body weight; for area under the curve from IPGTT: separate experiments
Experimental: Experimental animals. All animal studies were conducted as described in Example 1. […] Rats received injections of vehicle alone (10% DMSO in saline) or reserpine (in saline). Animals recovered fully before receiving IPGTT. Blood glucose, insulin, glucagon and intraperitoneal glucose tolerance tests measurements. […] The fasting blood glucose (BG) levels of the rats were measured using an Accu-Check blood glucose monitoring system (Roche Diagnostics, Sommerville, N.J.). Intraperitoneal glucose tolerance tests (IPGTT) were performed in 6 hour fasting un-anaesthetized animals. Briefly, after baseline BG measurements, animals received an intraperitoneal (i.p.) injection of 1 gram glucose/kilogram body weight. To minimize stress during the procedure, rats were handled by the same operator during acclimatization and later during weighing and IPGTT. Blood samples (approximately 30 μl) were collected at baseline and then again 15, 30, 45, 60, 90, and 120 minutes following i.p. glucose. BG concentrations were measured immediately on these samples and the remainder processed.

Lewis rats [2] = test: IPGTT after 2 mg/kg i.v. of VMAT2 ligands (FIG. 10); type: in vivo, rat; details: 2 mg/kg body weight i.v.; for blood glucose levels during IPGTT: around sixty minutes following glucose challenge; for area under the curve in the IPGTT: following glucose challenge; for blood glucose excursion during IPGTT: vs vehicle (DMSO)
Experimental: Experimental animals. All animal studies were conducted as described in Example 1.
Anaesthetized rats were administered TBZ, THB, butamol, reserpine, emetine, or Compound 6 at a dose of approximately 2-3 mg/kg body weight by intravenous (i.v.) injection using the penile vein. TBZ, THB, butamol, reserpine, emetine, and Compound 6 were each separately dissolved in neat sterile dimethylsulfoxide (DMSO) and diluted (always more than 10 fold) in sterile saline. Rats received injections of vehicle alone (10% DMSO in saline) or reserpine (in saline). Animals recovered fully before receiving IPGTT.
(§1) Blood glucose, insulin, glucagon and intraperitoneal glucose tolerance tests measurements. Blood samples were collected from a superficial blood vessel in the tails of the rats following 6 hours of fasting between 12:00 noon and 2:00 p.m. The fasting blood glucose (BG) levels of the rats were measured using an Accu-Check blood glucose monitoring system (Roche Diagnostics, Sommerville, N.J.). Intraperitoneal glucose tolerance tests (IPGTT) were performed in 6 hour fasting un-anaesthetized animals. Briefly, after baseline BG measurements, animals received an intraperitoneal (i.p.) injection of 1 gram glucose/kilogram body weight. To minimize stress during the procedure, rats were handled by the same operator during acclimatization and later during weighing and IPGTT. Blood samples (approximately 30 μl) were collected at baseline and then again 15, 30, 45, 60, 90, and 120 minutes following i.p. glucose. BG concentrations were measured immediately on these samples and the remainder processed.

Lewis rats [3] = test: Intraperitoneal glucose tolerance test (IPGTT) in normal Lewis rats after a single i.v. dose; type: in vivo, rat; details: 25 μg/gbm, single concentration; data not shown
Experimental: Experimental animals. All animal studies were reviewed and approved by the Institutional Animal Care and Use Committee (IACUC) at Columbia University's Medical School. All experiments were performed in accordance with the IACUC approved procedures. Normal male Lewis rats (100-400 grams) were obtained from Taconic (Taconic Inc., Germantown, N.Y.) and were housed under conditions of controlled humidity (55±5%), temperature (23±1° C.), and lighting (light on: 06.00-18.00 hours) with free access to standard laboratory rat chow and water. Rats were handled daily to minimize nonspecific stress for more than 7 days before the experiments began. In most experiments, it was necessary to measure blood glucose in fasting animals. For these groups, food was removed at the beginning of the light cycle, 6 hours before glucose levels were measured. Diabetes mellitus was induced by intraperitoneal injection of streptozotocin (Sigma Chemical Co., St. Louis, Mo.) (25 to 50 mg/kg) to animals (100 to 150 grams) that had been fasted 4 hours to enhance the effectiveness of STZ treatment.
The STZ solution was prepared fresh by dissolving it in 0.1 M citrate buffer (pH 5.5) and terminally sterile filtered. Control Lewis age and weight matched rats received a 0.5 ml/kg citrate vehicle alone via intraperitoneal injection. Sixty minutes prior to intraperitoneal glucose tolerance testing (IPGTT), anesthesia of male Lewis rats was induced with isoflurane (3-4% in oxygen) and maintained with 1-2% isoflurane in oxygen. Anaesthetized rats were administered TBZ at the indicated dose by intravenous (i.v.) injection using the penile vein. TBZ was dissolved in neat sterile dimethylsulfoxide (DMSO) and diluted (always more than 10 fold) in sterile saline. Rats received injections of vehicle alone (10% DMSO in saline) or reserpine (in saline). Animals recovered fully before receiving IPGTT.
as §1, with “30,” for “30, 45,”, “glucose administration.” for “glucose.”
Plasma was immediately separated by centrifugation at 3000×g for 15 minutes and then stored at −20° C. until analysis. Insulin and glucagon concentration measurements in rat plasma were performed by ELISA as per the manufacturer's instructions using kits from Linco Research Inc. (St. Charles, Mo.) and Alpco Diagnostics (Salem, N.H.), respectively. To validate the test, saline injections were performed by the same method. […] The area under the IPGTT glucose concentration×time curve (AUCIPGTT) was calculated by the trapezoidal rule. The area under the insulin or glucagon concentration×time curve (AUC INS or AUC GCG) was calculated in a similar manner.

Row | SMILES | blood glucose levels during IPGTT (Lewis rats [2]) | area under the curve in the IPGTT (Lewis rats [2]) | blood glucose excursion during IPGTT (Lewis rats [2]) | other results
1 | CNC[C@H](O)c1ccc(O)c(O)c1 [epinephrine, L-epinephrine bitartrate] | – | – | – | insulin secreted by human islets in culture (human islets): inhibited secretion of insulin
2 | CC[C@H]1CN2CCc3cc(OC)c(OC)cc3[C@@H]2C[C@@H]1C[C@H]1NCCc2cc(OC)c(OC)cc21 [emetine] | returned to control or near normal levels | smaller area under the curve | reduced the blood glucose excursion | blood glucose excursion during IPGTT (Lewis rats [1]): consistently reduced the blood glucose excursion; area under the curve from IPGTT (Lewis rats [1]): consistently suppressed the area under the curve; area under the curve from IPGTT (Lewis rats [1]; listed as emitine): depress the area under the curve
3 | COC(=O)[C@H]1[C@H]2C[C@@H]3c4[nH]c5cc(OC)ccc5c4CCN3C[C@H]2C[C@@H](OC(=O)c2cc(OC)c(OC)c(OC)c2)[C@@H]1OC [reserpine] | returned to control or near normal levels | smaller area under the curve | reduced the blood glucose excursion | AUC IPGTT relative to untreated controls (Lewis rats [3]): larger AUC IPGTT; blood glucose in IPGTT (Lewis rats [3]): persistent hyperglycemia
4 | COc1cc2c(cc1OC)C1CC(N)C(CC(C)C)CN1CC2 (stereo not drawn) [Compound 6, 3-isobutyl-9,10-dimethoxy-2,3,4,6,7,11b-hexahydro-1H-pyrido[2,1-a]isoquinolin-2-amine] | – | – | – | blood glucose excursion during IPGTT (Lewis rats [1]): consistently reduced the blood glucose excursion; area under the curve from IPGTT (Lewis rats [1]): depress the area under the curve; also recorded: consistently suppressed the area under the curve
5 | COc1cc2c(cc1OC)[C@H]1C[C@@H](O)[C@H](CC(C)C)CN1CC2 [DTBZ, dihydrotetrabenazine] | – | – | – | insulin secreted by human islets in culture (human islets): enhances glucose-stimulated insulin secretion; also recorded: significantly enhanced
6 | COc1ccc2c(c1OC)CN1CCc3cc4c(cc3C1C2)OCO4 (stereo not drawn) [THB, tetrahydroberberine] | returned to control or near normal levels | smaller area under the curve | reduced the blood glucose excursion | –
7 | CC(C)(C)NCC(O)c1ccc(O)c(CO)c1 (stereo not drawn) [butamol] | returned to control or near normal levels | smaller area under the curve | does not reduce the blood glucose excursion; also recorded: did not reduce the blood glucose excursion | –

Source: patent US20100204258A1, “METHODS AND COMPOSITIONS FOR MODULATING INSULIN SECRETION AND GLUCOSE METABOLISM” (The Trustees of Columbia University in the City of New York, priority 2007, published 2010)
